For series [1], the system named is amyloid precursor protein (APP) proteolysis. Briefly: Repressor Release Assay (RRA). Type of series: cell-based. As to conditions: all compounds tested at 20 μg/mL; for fold induction at 20 µg/mL: read-out: RRA data: fold increase of APPI (luciferase activity over diluent control). As to the method: The beta amyloid inhibitory activity of many of the compounds of the present invention has been determined using the Repressor Release Assay (RRA). See, Table 5 below. A compound is considered active in RRA if it leads to at least a 1.5 fold increase in luciferase activity at 20 μg/mL and is non-toxic.
The compounds generated as described in the Examples above are tested in the RRA in accordance with published techniques [Shuey, D. J., Sheiffele, P., Jones, D., Cockett, M. I., and Quinet, E. M. (1999), “Repressor release: a useful tool for monitoring amyloid precursor protein (APP) proteolysis in mammalian cells”, Society for Neuroscience Abstracts, Vol. 25, 29th Annual Meeting of Society for Neuroscience, Miami Beach, Fla., Oct. 23-28, 1999]. Briefly, this assay is performed as follows.
CHO-K1 cells are cultured in whole DMEM media (DMEM—High Glucose with 10% fetal bovine serum, 1% Non-essential Amino Acids, and 1% Penicillin-Streptomycin) at 37° C. with 5% CO2. Two million cells are plated into 10-cm dishes 24 hrs prior to transfection.
Transient transfections are completed as recommended by Gibco BRL using their Lipofectamine Plus® system. First, 6 μg of pRSVO-luc and 6 μg of APP-lacI construct DNA are added to 460 μL Opti-Mem transfection media and incubated with the 30 μL Plus® reagent for 15 minutes. Then, a lipid mixture of 40 μL Lipofectamine Plus® reagent and 460 μL Opti-Mem transfection media is incubated with the DNA-Plus reagent mixture for 15 minutes. During the DNA-lipid incubation, the CHO-K1 cells are washed once and covered in 5.0 mL DMEM media without Penicillin-Streptomycin. The DNA-lipid preparation is then layered onto these cells and incubated at 37° C. overnight.
One and one half million transfected cells per well (100 μL total volume) are plated into sterile, opaque Packard 96-well Cultur-Plates™ in clear DMEM whole media (DMEM—without phenol red) and incubated at 37° C. with 5% CO2 for 3-5 hours.
Compounds are diluted using two different protocols; one protocol is used for compounds supplied neat (weighed powder in vial) and the other protocol is used for compounds supplied in solution (20 mM in DMSO in 96-well plates). For both protocols, 25 mM Hepes and 25 mM Hepes/1% DMSO are prepared fresh to be used as diluent. The Hepes/DMSO is used as the diluent control on all experimental plates.
The following table depicts the steps for compound dilution (please note that the last step is the addition of compound to cells/media in tissue culture plate):
Because some compounds arrive in 96-well format at 20 mM, the following represents the protocol for their dilution (note that an average molecular weight of these compounds was used to calculate these dilutions and as above, the last step is the addition of compound to cells/media in tissue culture plate):
Once compounds are diluted, they are applied in duplicate on cells in tissue culture plates (prepared above). Cells are incubated with compound at 37° C. with 5% CO2 for an additional 36-48 hours.
Luciferase assays (the LucLite® reagent, Packard) are performed and are read on a Packard TopCount® instrument. Media is removed from each 96-well plate and replaced with 100 μL PBS per well (with Mg^2+ and Ca^2+). An equal volume (100 μL) of the LucLite® lysis/substrate buffer is added to each well and the plates are sealed and mixed in the dark on a rotary shaker for about 15 to about 30 minutes at room temperature. Luciferase readings are then taken on the TopCount® instrument. Measurements are expressed as relative light units (RLU) and are calculated and analyzed in the MS Excel® program as follows.
A compound is considered active in RRA if it leads to at least a 1.5 fold increase in luciferase activity at 20 μg/mL and is non-toxic, as determined by loss of signal (≦0.75 fold increase). Fold increase is the amount of luciferase activity (measured in relative light units) over diluent control. SEM represents the standard error of the mean for fold increase (not shown).

Series [2] is described as follows: Phase 1 and 2 mouse liver microsome metabolism. The format is in vitro ADME. Particulars: liver microsomes, read-out: half-life (metabolic stability). A general note: Liver microsomes are a subcellular fraction often used to study metabolism.
Series [3] can be described thus: Phase 1 and 2 rat liver microsome metabolism. The format is in vitro ADME. Particulars: liver microsomes, read-out: half-life (metabolic stability).
The nature of series [4]: Phase 1 and 2 dog liver microsome metabolism. The format is in vitro ADME. Particulars: liver microsomes, read-out: half-life (metabolic stability).
A further series can be described thus: in vitro. As to conditions: rat, microsomes.
Series [5] in a line: Phase 1 and 2 human liver microsome metabolism. Type of series: in vitro ADME. As to conditions: liver microsomes, read-out: half-life (metabolic stability).
The conditions of series [6]: mouse, microsomes.

We go through 19 molecules from patent US7858658B2, “Fluoro- and trifluoroalkyl-containing heterocyclic sulfonamide inhibitors of beta amyloid production and derivatives thereof” (Wyeth LLC, priority 2003, dated 2010).

“And” between values parts separate entries of the source, which are not always exact repeats. Equal values may be shown once.

By melting point is commonly meant the temperature, or range, at which the solid turns liquid. As usually defined, the half-life is how long it takes for the measured level to halve.

In turn, `CC[C@H](CC(F)(F)F)[C@@H](CO)NS(=O)(=O)c1ccc(Cl)s1` [Example 2, 5-Chloro-N-[(1S,2R)-2-ethyl-4,4,4-trifluoro-1-(hydroxymethyl)butyl]thiophene-2-sulfonamide] showed a melting point of 128 to 129 °C. In series [1], the fold induction at 20 µg/mL stood at 5.4.

`C[C@@H](CC(F)(F)F)[C@@H](CO)NS(=O)(=O)c1ccc(Cl)s1` [Example 10, 5-Chloro-N-[(1S,2S)-4,4,4-trifluoro-1-(hydroxymethyl)-2-methylbutyl]thiophene-2-sulfonamide]: the melting point is 99 to 100 °C. Moreover, the fold induction at 20 µg/mL in series [1] turned out to be 5.2.

As for `O=S(=O)(NC(CO)C1CCC(F)(F)CC1)c1ccc(Cl)s1` (stereo not shown) [Example 14, 5-Chloro-N-[1-(4,4-difluorocyclohexyl)-2-hydroxyethyl]thiophene-2-sulfonamide], in series [1], the fold induction at 20 µg/mL is 6.2.

Consider `CC(=O)[C@@H](NS(=O)(=O)c1ccc(Cl)s1)[C@H](C)CC(F)(F)F` [Example 17, N-[(1S,2R)-1-Acetyl-4,4,4-trifluoro-2-methylbutyl]-5-chlorothiophene-2-sulfonamide], for which, in series [1], the fold induction at 20 µg/mL came to 3.6.

Regarding `C[C@H](CC(F)(F)F)[C@@H](C=O)NS(=O)(=O)c1ccc(Cl)s1` [Example 16, 5-Chloro-N-[(1S,2R)-4,4,4-trifluoro-1-formyl-2-methylbutyl]thiophene-2-sulfonamide], in series [1], the fold induction at 20 µg/mL is 3.9.

On to `C[C@H](CC(F)(F)F)[C@H](NS(=O)(=O)c1ccc(Cl)s1)[C@@H](C)O` [Example 9, 5-Chloro-N-{(1S,2R)-4,4,4-trifluoro-1-[(1R)-1-hydroxyethyl]-2-methylbutyl}thiophene-2-sulfonamide], for which the fold induction at 20 µg/mL in series [1] was determined as 2.8.

As to `CC[C@H](CC(F)(F)F)[C@H](NS(=O)(=O)c1ccc(Cl)s1)C(C)O` (stereo partly drawn) [Example 3, 5′-Chloro-N-[(1S,2R)-2-ethyl, 4,4,4-trifluoro-1-(1-hydroxyethyl)butyl]thiophene-2′-sulfonamide], the “RRA data: fold increase of APPI (luciferase activity over diluent control)” value (“RRA data: fold increase of APPI” below) in series [1] is 4.3 fold increase.

On to `CC[C@@H](CC(F)(F)F)[C@@H](CO)NS(=O)(=O)c1sc2ccc(Cl)cc2c1C` [Example 11, (2S,3S)-2-(5-Chloro-3-methylbenzo[b]thiophene-2-sulfonyl)-amido-5,5,5-trifluoro-3-ethyl-pentan-1-ol], for which the “RRA data: fold increase of APPI” value in series [1] came out at 4.2 fold increase.

Regarding `O=S(=O)(NC(CO)CC(F)(F)F)c1ccc(Cl)s1` (stereo not shown) [Example 40, 5-chloro-(3,3,3-trifluoro-1-hydroxymethyl-propyl)-thiophene-2-sulfonamide], in series [1], the fold induction at 20 µg/mL amounted to 3.8.

For the molecule `O=S(=O)(NC(CO)C1CC2C(C1)C2(F)F)c1ccc(Cl)s1` (stereo not shown) [Example 15, 5-Chloro-N-[1-(6,6-difluorobicyclo[3.1.0]hex-3-yl)-2-hydroxyethyl]thiophene-2-sulfonamide], the fold induction at 20 µg/mL in series [1] was determined as 4.7.

For `Cc1nn(C)c(Cl)c1S(=O)(=O)N[C@H](CO)[C@H](CC(F)(F)F)c1ccccc1` [Example 12, (2S,3R)-2-(5-Chloro-1,3-dimethyl-1H-pyrazole-4-sulfonyl)-amido-5,5,5-trifluoro-3-phenyl-pentan-1-ol], the “RRA data: fold increase of APPI” value in series [1] is 1.6 fold increase.

`C[C@H](CC(F)(F)F)[C@@H](CO)NS(=O)(=O)c1ccc(Cl)s1` [Example 1, 5-Chloro-N-[(1S,2R)-4,4,4-trifluoro-1-(hydroxymethyl)-2-methylbutyl]thiophene-2-sulfonamide]: the melting point is 132 to 133 °C and 136 to 137 °C. In addition, the half-life in series [2] amounted to 10 min. Moreover, in series [1], the fold induction at 20 µg/mL came out at 3.2. Also, in series [3], the half-life stood at 14 min. In addition, the half-life in series [4] was determined as 31 min. Moreover, the half-life in the series “in vitro” was roughly 193 min. For the same molecule, the half-life in series [5] is 22 min.

For the molecule `CC[C@@H](CC(F)(F)F)[C@H](CO)NS(=O)(=O)c1ccc(Cl)s1` [Example 6, 5-Chloro-N-[(1R,2S)-2-ethyl-4,4,4-trifluoro-1-(hydroxymethyl)butyl]thiophene-2-sulfonamide], the fold induction at 20 µg/mL in series [1] turned out to be 4.2.

In the case of `C[C@H](O)[C@@H](NS(=O)(=O)c1ccc(Cl)s1)[C@H](C)CC(F)(F)F` [Example 8, 5-Chloro-N-{(1S,2R)-4,4,4-trifluoro-1-[(1S)-1-hydroxyethyl]-2-methylbutyl}thiophene-2-sulfonamide], in series [1], the fold induction at 20 µg/mL came out at 2.8.

On to `O=S(=O)(NC(CO)C(C(F)(F)F)C(F)(F)F)c1ccc(Cl)s1` (stereo not shown) [Example 4, 5′-Chloro-N-[3,3,3-trifluoro-2-(trifluoromethyl)-1-(hydroxymethyl)propyl]thiophene-2′-sulfonamide], for which, in series [1], the “RRA data: fold increase of APPI” value was 3.7 fold increase.

For `C[C@H](CC(F)(F)F)[C@H](NS(=O)(=O)c1ccc(Cl)s1)C(C)(C)O` [Example 18, 5-Chloro-N-[(1S,2R)-4,4,4-trifluoro-1-(1-hydroxy-1-methylethyl)-2-methylbutyl]thiophene-2-sulfonamide], the fold induction at 20 µg/mL in series [1] amounted to 2.9.

As for `O=S(=O)(NC(CO)CCC(F)(F)F)c1ccc(Cl)s1` (stereo not shown) [Example 7, 5-Chloro-N-[4,4,4-trifluoro-1-(hydroxymethyl)butyl]thiophene-2-sulfonamide], the fold induction at 20 µg/mL in series [1] was 3.9.

As for `O=S(=O)(N[C@H](CO)C(C(F)(F)F)C(F)(F)F)c1ccc(Cl)s1` [Example 5, 5′-Chloro-N-[3,3,3-trifluoro-2-(trifluoromethyl)-1-S-(hydroxymethyl)propyl]thiophene-2′-sulfonamide], the “RRA data: fold increase of APPI” value in series [1] is 3.8 fold increase. The “half-life (metabolic stability)” value in series [6] was 46 min.

On to `C[C@@H](O)[C@@H](NS(=O)(=O)c1ccc(Cl)s1)C(C(F)(F)F)C(F)(F)F` [Example 41, 5-Chloro-N-[(1S)-3,3,3-trifluoro-1-[(1R)-1-hydroxyethyl]-2-(trifluoromethyl)propyl]thiophene-2-sulfonamide], for which the fold induction at 20 µg/mL in series [1] was 6.2.
